Laboratory results taken from ChEMBL document CHEMBL5247636, “Synthesis and antineoplastic activity of ethylene glycol phenyl aminoethyl ether derivatives as FOXM1 inhibitors” (Eur J Med Chem, 2022).

Columns and labels:
[1] = tested on: SK-OV-3; test: cells; conditions: Homo sapiens
Description: Antiproliferative activity against human SK-OV-3 cells assessed as inhibition of cell growth measured after 22 to 70 hrs by CCK-8 assay

[2] = tested on: HepG2; test: cells; conditions: Homo sapiens
Description: Antiproliferative activity against human HepG2 cells assessed as inhibition of cell growth measured after 22 to 70 hrs by CCK-8 assay

[3] = tested on: HCT-116; test: cells; conditions: Homo sapiens
Description: Antiproliferative activity against human HCT-116 cells assessed as inhibition of cell growth measured after 22 to 70 hrs by CCK-8 assay

[4] = Cytotoxicity against human FTE-187 cells assessed as inhibition of cell growth upto 50 uM measured after 24 to 48 hrs by CCK-8 assay; assay type: toxicity, cell-based; conditions: fte-187, 50 µM, time 24-48 hrs
[5] = tested on: SK-OV-3; test: Cytotoxicity against human SK-OV-3 cells assessed as inhibition of cell growth measured after 24 hrs by CCK-8 assay; assay type: toxicity, cell-based; conditions: sk-ov-3, 24 h
[6] = tested on: A2780; test: Cytotoxicity against human A2780 cells assessed as inhibition of cell growth measured after 24 hrs by CCK-8 assay; assay type: toxicity, cell-based; conditions: a2780, 24 h
[7] = tested on: SK-OV-3; test: Down regulation of PLK1 expression in human SK-OV-3 cells by Western blotting analysis; assay type: functional, cell-based; conditions: dose 0.1-10 µg/ml
[8] = tested on: SK-OV-3; test: Down regulation of CDC25B expression in human SK-OV-3 cells by Western blotting analysis; assay type: functional, cell-based; conditions: dose 0.1-10 µg/ml
[9] = tested on: SK-OV-3; test: cells; conditions: Homo sapiens, SK-OV-3, 24 h
Description: Cytotoxicity against human SK-OV-3 cells expressing low FOXM1 assessed as inhibition of cell growth measured after 24 hrs by CCK-8 assay

SMILES | IC50 [1] [µM] | also measured
O=[N+]([O-])c1ccccc1COc1ccc(OCCOCCNC2CCCC2)cc1 | 5.37 | 
Cc1ccc(COc2ccc(OCCOCCNC3CCCC3)cc2)cc1 | 17.2 | 
c1ccc(COc2ccc(OCCOCCNC3CC3)cc2)cc1 | 47.2 | 
O=Cc1ccc(COc2ccc(OCCOCCNC3CCCC3)cc2)cc1 | 45 | 
Nc1c(C(=O)Nc2ccc(F)cc2)sc2nc(-c3cccs3)cc(C(F)(F)F)c12 | 51.4 | IC50 [2]: 70.5 µM; IC50 [3]: 86.1 µM
COc1ccc(OCCOCCNC2CCCC2)cc1 | 99.1 | 
Clc1ccc(COc2ccc(OCCOCCNC3CCCC3)cc2)cc1 | 7.67 | 
COC(=O)c1ccc(COc2ccc(OCCOCCNC3CCCC3)cc2)cc1 | 6.99 | 
O=[N+]([O-])c1cccc(COc2ccc(OCCOCCNC3CCCC3)cc2)c1 | 15.4 | 
COC(=O)c1ccccc1COc1ccc(OCCOCCNC2CCCC2)cc1 | > 100 | 
Nc1ccc(COc2ccc(OCCOCCNC3CCCC3)cc2)cc1 | 31.7 | 
O=C(O)c1ccccc1COc1ccc(OCCOCCNC2CCCC2)cc1 | > 100 | 
COC(=O)c1ccc(COc2ccc(OCCOCCNC3CCCCC3)cc2)cc1 | 6.22 | IC50 [2]: 30.3 µM; IC50 [3]: 5.3 µM
c1ccc(COc2ccccc2OCCOCCNC2CCCC2)cc1 | 40.7 | 
c1ccc2cc(OCCOCCNC3CCCC3)ccc2c1 | 40.6 | 
c1ncn(-c2ccc(OCCOCCNC3CCCC3)cc2)n1 | > 100 | 
c1ccc(COc2ccc(COc3ccc(OCCOCCNC4CCCC4)cc3)cc2)cc1 | 10 | 
Nc1cccc(COc2ccc(OCCOCCNC3CCCC3)cc2)c1 | 10.8 | 
c1ccc(COc2ccc(OCCOCCNc3ccccc3)cc2)cc1 | > 100 | 
c1ccc(COc2ccc(OCCOCCNc3cc[nH]c3)cc2)cc1 | 11.3 | 
c1ccc(COc2ccc(OCCOCCNC3CCCCCC3)cc2)cc1 | 7.46 | 

SMILES | IC50 [1] [µM] | also measured
c1ccc(COc2ccc(OCCOCCNC3CCCC3)cc2)cc1 | 24.8 | IC50 [2]: 25.4 µM; IC50 [3]: 12.9 µM
CCOc1ccc(OCCOCCNC2CCCC2)cc1 | 90.5 | 
Clc1ccc(COc2ccc(OCCOCCNC3CCCCC3)cc2)cc1 | 2.65 | Activity [4]: Non-Toxic; Activity [5]: Toxic; Activity [6]: Toxic; Activity [7]: Dose-Dependent Effect; Activity [8]: Dose-Dependent Effect; IC50 [2]: 15.1 µM; IC50 [3]: 2.69 µM; IC50 [9]: 65.4 µM
c1ccc(COc2ccc(OCCOCCNC3CCC3)cc2)cc1 | 25 | 
OCCOCCOCCOc1ccc(OCc2ccccc2)cc1 | 59.4 | 
c1ccc(COc2ccc(OCCOCCNC3CCOC3)cc2)cc1 (stereo not given) | 48 | 
c1ccc(COc2ccc(OCCOCCNC3CCCCC3)cc2)cc1 | 7.37 | 
c1ccc(COc2ccc(OCCOCCOC3CCCC3)cc2)cc1 | > 100 | 
COC(=O)c1cccc(COc2ccc(OCCOCCNC3CCCC3)cc2)c1 | 45.5 | 
COc1cc(OCCOCCNC2CCCC2)ccc1OCc1ccccc1 | 44.6 | 
O=C(O)c1cccc(COc2ccc(OCCOCCNC3CCCC3)cc2)c1 | > 100 | 
COc1ccc(COc2ccc(OCCOCCNC3CCCC3)cc2)cc1 | 15.7 | 
c1cc2c(cc1OCCOCCNC1CCCC1)CCCC2 | 31.9 | 
O=[N+]([O-])c1ccc(COc2ccc(OCCOCCNC3CCCC3)cc2)cc1 | 20.3 | 
CN(C)CCOCCOc1ccc(OCc2ccccc2)cc1 | 11.9 | 
c1ccc(COc2ccc(COc3ccc(OCCOCCNC4CCCCC4)cc3)cc2)cc1 | 8.08 | IC50 [2]: 18.1 µM; IC50 [3]: 4.35 µM
O=C(O)c1ccc(COc2ccc(OCCOCCNC3CCCC3)cc2)cc1 | > 100 | 
O=[N+]([O-])c1ccccc1COc1ccc(OCCOCCNC2CCCCC2)cc1 | 2.88 | IC50 [2]: 25.5 µM; IC50 [3]: 11.1 µM
c1ccc(COc2ccc(OCCOCCNc3ccncc3)cc2)cc1 | 20.6 | 
Nc1ccccc1COc1ccc(OCCOCCNC2CCCC2)cc1 | 14 | 
CC(C)(C)OC(=O)n1ccc(NCCOCCOc2ccc(OCc3ccccc3)cc2)c1 | 13 | 
